Experimental data reported in US5591741A, “Fungicidal spiroheterocyclic derivatives” (American Cyanamid Company, priority 1993, dated 1997).

Experiments:
Plasmopara viticola = assay: Antisporulant activity against vine downy mildew (PVA); type: in vivo; conditions: vine leaves, antisporulant foliar spray, 600 ppm, 750 l/ha
How it was run: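 Cabernet Sauvignon vines (~8 cm) inoculated on lower leaf surfaces with 5×10^4 zoosporangia/ml, held 24 h at 21° C high humidity then 24 h glasshouse. Infected leaves sprayed underside with 600 ppm compound in 1:1 water/acetone, 0.04% Tween 20, 750 l/ha; 96 h glasshouse, 24 h humidity. Sporulating leaf area rated versus control.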

[1] = system: Erysiphe graminis f.sp. hordei; assay: Activity against barley powdery mildew, direct therapeutic (EGT); type: in vivo; conditions: direct therapeutic foliar spray, 600 ppm, up to 7 days
How it was run: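 A curative spray at 600 ppm was applied to single-leaf Golden Promise barley inoculated with powdery mildew conidia the previous day. After up to 7 days at 18 °C and 40% humidity, disease control was rated from percent leaf area sporulating relative to untreated or diluent-sprayed controls.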

[2] = system: Pseudocercosporella herpotrichoides; assay: Activity against wheat eyespot in-vitro (PHI); type: cell-based; conditions: 10 ppm, 10 days, 20° C., mycelial growth
How it was run: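 Mycelial growth was scored after 10 days at 20 °C against untreated or diluent controls. The broth was half-strength potato dextrose, holding 10 ppm test compound (from acetone) and 5×10^4 fragments/ml of the eyespot fungus.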

Alternaria solani = assay: Activity against tomato early blight (AS); type: in vivo; conditions: Table VI; tomato seedlings, contact prophylactic foliar spray, 4 days
How it was run: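 Plants were challenged with A. solani conidia (10^4 spores/ml) 24 h after a protective foliar spray of compound in 50:50 acetone/water plus 0.04% Tween 20. Held humid at 21° C for 4 days, then percent leaf area with lesions was scored as a rating relative to controls.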

[3] = system: Erysiphe graminis f.sp. hordei; assay: Direct protectant activity against barley powdery mildew (EGP); type: in vivo; conditions: direct protectant foliar spray, 8 days
How it was run: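 Rating reflects percentage of leaf area with sporulation compared with untreated or diluent-sprayed controls. Protectant spray was applied to single-leaf barley (cv Golden Promise) 24 h before conidia inoculation. Plants were kept at 18 °C and 40% RH throughout, with 8 days of disease development.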

Leptosphaeria nodorum = assay: Activity against wheat leafspot (LN); type: in vivo; conditions: direct therapeutic foliar spray, 600 ppm, 6-8 days
How it was run: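 Therapeutic foliar spray: compound at 600 ppm applied to single-leaf wheat (cv Norman) 24 h after inoculation with 1.5×10^6 conidia/ml. Disease control scored after 6-8 days at 22° C and 70% humidity as lesions per leaf versus untreated or diluent-sprayed controls.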

Phytophthora infestans = type: in vivo; conditions: tomato, direct protectant foliar spray
Rhizoctonia solani = assay: Activity against Rhizoctonia in-vitro (RSI); type: cell-based; conditions: 10 ppm, 10 days, 20° C., mycelial growth
How it was run: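 Compound at a final 10 ppm (acetone vehicle) in half-strength PDB, inoculated with 5×10^4 fragments/ml of shaken-culture R. solani mycelium. After incubation at 20° C for 10 days, growth scored as a rating versus untreated or diluent-treated controls.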

Venturia inaequalis = assay: Activity against apple scab in-vitro (VII); type: cell-based; conditions: 10 ppm, 10 days, 20° C., mycelial growth
How it was run: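 V. inaequalis propagules (5×10^4/ml, malt agar-grown) were exposed in half-strength PDB to 10 ppm final test compound delivered in acetone. Growth was scored after incubation for 10 days at 20° C, as a rating relative to untreated or diluent-sprayed controls.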

Pyricularia oryzae = type: in vivo; conditions: rice seedlings, direct therapeutic foliar spray, 600 ppm, 4-5 days
Botrytis cinerea = assay: Direct protectant activity against broad bean grey mould (BCB); type: in vivo; conditions: direct protectant foliar spray, 600 ppm, 4 days
How it was run: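 Protectant foliar test: lesion coverage assessed 4 days after inoculation and rated relative to untreated or diluent-sprayed plants. Compound applied at 600 ppm to cv The Sutton leaves 24 h before 10^6 conidia/ml suspension; incubation at 22 °C in high humidity.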

Compound | disease control rating PVA (Plasmopara viticola) | disease control rating EGT [1] | disease control rating PHI [2] | disease control rating AS (Alternaria solani) | disease control rating EGP [3] | disease control rating LN (Leptosphaeria nodorum) | disease control rating PIP (Phytophthora infestans) | disease control rating RSI (Rhizoctonia solani) | disease control rating VII (Venturia inaequalis) | disease control rating PO (Pyricularia oryzae) | disease control rating BCB (Botrytis cinerea)
CN(CCC1CCCCC1)C1COC2(CCC(C(C)(C)C)CC2)C1 (centres unmarked) [Compound 117] | 0 (less than 50% disease control) | 2 (greater than 80% disease control) | 1 (about 50-80% disease control) | 2 (greater than 80% disease control) | 2 (greater than 80% disease control) | 0 (less than 50% disease control) | 0 (less than 50% disease control) | 1 (about 50-80% disease control) | 1 (about 50-80% disease control) | 0 (less than 50% disease control) | 0 (less than 50% disease control)
CCCCCCN(CCCCCC)C1COC2(CCC(C(C)(C)C)CC2)C1 (centres unmarked) [Compound 69] | 0 (less than 50% disease control) | 2 (greater than 80% disease control) | 0 (less than 50% disease control) | 0 (less than 50% disease control) | 2 (greater than 80% disease control) | 0 (less than 50% disease control) | 0 (less than 50% disease control) | 0 (less than 50% disease control) | 2 (greater than 80% disease control) | 1 (about 50-80% disease control) | 0 (less than 50% disease control)
CC(C)(C)C1CCC2(CC1)CC(NC1CCC(O)CC1)CO2 (centres unmarked) [Compound 90] | 0 (less than 50% disease control) | 2 (greater than 80% disease control) | 0 (less than 50% disease control) | 0 (less than 50% disease control) | 2 (greater than 80% disease control) | 0 (less than 50% disease control) | 2 (greater than 80% disease control) | 0 (less than 50% disease control) | 0 (less than 50% disease control) | 0 (less than 50% disease control) | 2 (greater than 80% disease control)
CC(C)(C)C1CCC2(CC1)CC(N1CCCCCC1)CO2 (centres unmarked) [Compound 21] | 0 (less than 50% disease control) | 2 (greater than 80% disease control) | 0 (less than 50% disease control) | 0 (less than 50% disease control) | 2 (greater than 80% disease control) | 0 (less than 50% disease control) | 0 (less than 50% disease control) | 0 (less than 50% disease control) | 1 (about 50-80% disease control) | 0 (less than 50% disease control) | 2 (greater than 80% disease control)
CCCCN(CCCC)C1COC2(CCC(c3ccccc3)CC2)C1 (centres unmarked) [Compound 55] | 0 (less than 50% disease control) | 2 (greater than 80% disease control) | 0 (less than 50% disease control) | 0 (less than 50% disease control) | 2 (greater than 80% disease control) | 1 (about 50-80% disease control) | 0 (less than 50% disease control) | 0 (less than 50% disease control) | 1 (about 50-80% disease control) | 0 (less than 50% disease control) | 2 (greater than 80% disease control)
CCCCCCCCNC1COC2(CCC(C(C)(C)C)CC2)C1 (centres unmarked) [Compound 7] | 0 (less than 50% disease control) | 2 (greater than 80% disease control) | 2 (greater than 80% disease control) | 0 (less than 50% disease control) | 2 (greater than 80% disease control) | 0 (less than 50% disease control) | 0 (less than 50% disease control) | 2 (greater than 80% disease control) | 2 (greater than 80% disease control) | 0 (less than 50% disease control) | 1 (about 50-80% disease control)
CC1CCCN(C2COC3(CCC(C(C)(C)C)CC3)C2)C1 (centres unmarked) [Compound 18] | 0 (less than 50% disease control) | 2 (greater than 80% disease control) | 0 (less than 50% disease control) | 0 (less than 50% disease control) | 2 (greater than 80% disease control) | 1 (about 50-80% disease control) | 0 (less than 50% disease control) | 0 (less than 50% disease control) | 1 (about 50-80% disease control) | 0 (less than 50% disease control) | 0 (less than 50% disease control)
CCCCc1ccc(NC2COC3(CCC(C(C)(C)C)CC3)C2)cc1 (centres unmarked) [Compound 25] | 0 (less than 50% disease control) | 0 (less than 50% disease control) | 0 (less than 50% disease control) | 0 (less than 50% disease control) | 0 (less than 50% disease control) | 0 (less than 50% disease control) | 0 (less than 50% disease control) | 0 (less than 50% disease control) | 0 (less than 50% disease control) | 0 (less than 50% disease control) | 0 (less than 50% disease control)
CC1CCCC(NC2COC3(CCC(C(C)(C)C)CC3)C2)C1 (centres unmarked) [Compound 88] | 0 (less than 50% disease control) | 2 (greater than 80% disease control) | 0 (less than 50% disease control) | 0 (less than 50% disease control) | 2 (greater than 80% disease control) | 0 (less than 50% disease control) | 2 (greater than 80% disease control) | 1 (about 50-80% disease control) | 1 (about 50-80% disease control) | 0 (less than 50% disease control) | 2 (greater than 80% disease control)
CC1(CNC2COC3(CCC(C(C)(C)C)CC3)C2)CCCCC1 (centres unmarked) [Compound 120] | 0 (less than 50% disease control) | 2 (greater than 80% disease control) | 0 (less than 50% disease control) | 0 (less than 50% disease control) | 2 (greater than 80% disease control) | 0 (less than 50% disease control) | 0 (less than 50% disease control) | 1 (about 50-80% disease control) | 1 (about 50-80% disease control) | 0 (less than 50% disease control) | 1 (about 50-80% disease control)
